Laboratory results taken from patent US20050142581A1, “Microrna as ligands and target molecules” (priority 2003, published 2005).
Where “and” joins values, the source holds several entries; their conditions need not be identical. Identical values can stand only once. Entries after “also recorded” stand apart in the source; their conditions may differ. Oligonucleotides are written 5' to 3', each unit as a sugar letter and its base; * is a phosphorothioate linkage, no mark a phosphodiester; rarer units and linkages stand in square brackets, end groups in braces. Plain capitals give the bases only. e = 2'-O-(2-methoxyethyl) (MOE); [5mC] = 5-methylcytosine; d = 2'-deoxy (DNA)

Assays:
[1] = test system: 27 nucleotide fragment of bacterial 16S ribosomal RNA incorporating the A-site; assay: ESI-FT-ICR mass spectrometry detection of non-covalent ligand complexes with 16S RNA fragment; assay type: binding; conditions: for mode of binding interaction of two ligands for the target RNA: ligand pair mixed with 5 μM 16S RNA fragment, presence and abundance of ternary complex; for ion abundance of binary complex relative to unbound 16S RNA: 200 μM ligand, 5 μM target 16S RNA fragment; for ion abundance of binary complex relative to unbound 16S RNA / relative binding affinity from comparison of ion abundance of binary complexes: mass spectrometry; for relative binding affinity from comparison of ion abundance of binary complexes: 16S RNA fragment
From the text: Ligands bind competitively for a target when the binding of one ligand prevents the binding of the other ligand is the result of the ligands binding to the target at the same location. In this situation, the mixture contains an equilibrium of two binary complexes, one of which being one ligand bound to the target and the other being the other ligand bound to the target. The ligand having the greater affinity for the target will predominate and thus have higher signal intensity for its binary complex with the target compared to the other ligand. Competitive binding interaction between two ligands is determined according to methods of the invention by analyzing the mixture by mass-spectrometry to detect the presence or lack of signal corresponding to a ternary complex where both ligands are bound to the target at the same time. The lack of signal for a ternary complex indicates a competitive binding interaction between the two ligands while the presence of the signal indicates a non-competitive interaction.
Ligands bind concurrently when the binding of one ligand to the target is unaffected by the binding of the other and is a consequence of the ligands binding to the target at distinct sites. […] The ligand having the greater affinity for the target will have higher signal intensity for its binary complex with the target compared to the other ligand. […] Particularly, the absolute ion abundance of the ternary complex (TL1L2) is compared to the relative ion abundance of the binary complexes (TL1 and TL2) which contribute to the formation of the ternary complex with respect to the unbound target (TL1×TL2/T). Since there are two binary complexes contributing the formation of the ternary complex, the comparison is with the sum of the two contributing binary complexes i.e. TL1×TL2/T+TL2×TL1/T. If the absolute ion abundance of the ternary complex is equal to the sum of the relative ion abundance of the contributing binary complexes, then the two ligands concurrently bind to the target substrate. […] The relative ion abundance of the ternary complex (16S+2−DOS+DT) with respect to the unbound 16S target RNA (16S) is equal, within limits of error, to the sum of the relative ion abundance of the contributing binary complex ((16S+DT)×(16S+2−DOS)) with respect to the unbound target (16S) and the contributing binary complex ((16S+2−DOS)+(16S+DT)) with respect to the unbound target (16S).
All MS experiments were performed by using an Apex II 70e ESI-FT-ICR MS (Bruker Daltonics, Billerica, Mass.) with an actively shielded 7 tesla superconducting magnet. RNA solutions were prepared in 50 mM NH4OAc (pH 7), mixed with 10% isopropanol to aid desolvation, and infused at a rate of 1.5 μL/min by using a syringe pump. Ions were formed in a modified electrospray source (Analytica, Branford, Conn.) by using an off-axis grounded electrospray probe positioned about 1.5 cm from the metallized terminus of the glass desolvation capillary biased at 5,000 V. A countercurrent flow of dry […] gas heated to 150° C. was used to assist in the desolvation process. Ions were accumulated in an external ion reservoir comprised of a radio frequency-only hexapole, a skimmer cone, and an auxiliary electrode for 1,000 ms before transfer into the trapped ion cell for mass analysis. Each spectrum was the result of the co-addition of 64 transients comprised of 524,288 data points acquired over a […] bandwidth, resulting in a 1.2-sec detection interval. All aspects of pulse sequence control, data acquisition, and postacquisition processing were performed by using a Bruker Daltonics data station running XMASS Version 4.0 on a Silicon Graphics (Mountain View, Calif.) R5000 computer.
RNA binding ligands are selected from a set of compounds using mass spectrometry. The RNA used for the target molecule is an RNA whose electrospray ionization properties have been optimized in conjunction with optimization of the electrospray ionization and desolvation conditions. […]

human CD40 mRNA = assay: Inhibition of CD40 mRNA levels by oligonucleotides (real-time RT-PCR); assay type: cell-based; design: concentration or dose not given beside the values; conditions: for % INHIB. (Inhibition of CD40 mRNA Levels by Phosphorothioate Oligodeoxynucleotides): oligodeoxynucleotides with phosphorothioate backbones throughout, averages from three experiments; for % Inhibition (Inhibition of CD40 mRNA Levels by Chimeric Phosphorothioate Oligonucleotides): 2'-MOE gapmers, 18 nucleotides, phosphorothioate throughout, averaged from three experiments
Summary of the method: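 Cells at ~80% confluency were transfected with oligonucleotide at 150 nM final using Lipofectin 3.75 μg/ml for 4 h and harvested 16 h after treatment. Poly(A)+ mRNA was taken for TaqMan real-time RT-PCR of CD40, and percent inhibition was derived from a standard curve of untreated control mRNA.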

Compound: N[C@H]1C(O)O[C@H](CO)[C@@H](O)[C@@H]1O (stereo partly drawn) [glucosamine, reference compound]
- mode of binding interaction of two ligands for the target RNA [1]: competitive binders; also recorded: displaced from the RNA by addition of a benzimidazole compound

Compound: 1-{2-[(3R)-4-((2S)-2-amino-3-hydroxypropanoyl)-3-methylpiperazinyl]-2-oxoethyl}-5-methyl-1,3-dihydropyrimidine-2,4-dione [IBIS-271583]
- ion abundance of binary complex relative to unbound 16S RNA [1]: 27.8%
- ion abundance of binary complex relative to unbound 16S RNA ([1]; listed as IBIS-271483): 52.4%
- relative binding affinity from comparison of ion abundance of binary complexes [1]: greater affinity for 16S than either parent compound
- relative binding affinity from comparison of ion abundance of binary complexes ([1]; listed as IBIS-271483): greater affinity for the target 16S RNA than either of the parent compounds

Compound: Nc1cccc2nc(C3CCNCC3)[nH]c12 [Ibis-326732, 4-amino-2-piperidin-4-ylbenzimidazole]
- relative binding affinity from comparison of ion abundance of binary complexes [1]: greater affinity than glucosamine
- mode of binding interaction of two ligands for the target RNA [1]: competitive displacement of glucosamine; also recorded: competitive binders

Compound: Nc1n[nH]c(N)n1 [DT, 3,5-diamino-1,2,4-triazole, reference compound]
- mode of binding interaction of two ligands for the target RNA [1]: concurrent binding interaction
- mode of binding interaction of two ligands for the target RNA ([1]; listed as 3,5-DT): cooperative binding
- mode of binding interaction of two ligands for the target RNA ([1]; listed as 3,5-diamino-1,2,4-triazole): concurrent binding

Compound: N[C@@H](CO)C(=O)N1CCNCC1 [IBIS-326611, (2S)-2-amino-3-hydroxy-1-piperazinylpropan-1-one]
- ion abundance of binary complex relative to unbound 16S RNA [1]: 14.7% and 27.8%

Compound: N[C@@H]1C[C@H](N)[C@@H](O)C(O)[C@H]1O (stereo partly drawn) [2-DOS, 2-deoxystreptamine, reference compound]
- relative binding affinity from comparison of ion abundance of binary complexes [1]: greater binding affinity for the target RNA than DT
- mode of binding interaction of two ligands for the target RNA [1]: concurrent binding interaction; also recorded: cooperative binding

Compound: NN1CN(SCc2ccccc2)C=N1 [2-amino-4-benzylthio-1,2,4-triazole]
- ions of ligand adduct with RNA target observed ([1]; RNA target 5 micromolar, ligand 100 micromolar, ammonium as standard ligand): also seen

Compound: 18677 (DNA dC*dA*dC*dA*dG*dC*dT*dT*dG*dT*dC*dC*dA*dA*dG*dG*dG*dT; antisense) [compound 18677]
- % INHIB. (Inhibition of CD40 mRNA Levels by Phosphorothioate Oligodeoxynucleotides) (human CD40 mRNA): 0.00%

Compound: 19227 (antisense e[5mC]*eT*eG*eT*dC*dC*dT*dG*dG*dC*dT*dG*dG*dC*eA*e[5mC]*eA*eA) [compound 19227]
- % Inhibition (Inhibition of CD40 mRNA Levels by Chimeric Phosphorothioate Oligonucleotides) (human CD40 mRNA): 24.37%

Compound: 19251 (antisense eG*eA*eG*e[5mC]*dG*dG*dT*dG*dC*dA*dG*dG*dA*dC*eA*e[5mC]*eA*eG) [compound 19251]
- % Inhibition (Inhibition of CD40 mRNA Levels by Chimeric Phosphorothioate Oligonucleotides) (human CD40 mRNA): 50.15%

Compound: 18642 (DNA dG*dT*dG*dC*dA*dG*dT*dC*dA*dC*dT*dC*dA*dC*dC*dA*dG*dT; antisense) [compound 18642]
- % INHIB. (Inhibition of CD40 mRNA Levels by Phosphorothioate Oligodeoxynucleotides) (human CD40 mRNA): 0.00%

Compound: 18632 (DNA dT*dC*dT*dG*dG*dA*dT*dG*dG*dA*dC*dA*dG*dC*dG*dG*dT*dC; antisense) [compound 18632]
- % INHIB. (Inhibition of CD40 mRNA Levels by Phosphorothioate Oligodeoxynucleotides) (human CD40 mRNA): 0.00%

Compound: 18684 (DNA dC*dT*dG*dG*dG*dG*dA*dC*dC*dA*dC*dA*dG*dA*dC*dA*dA*dC; antisense) [compound 18684]
- % INHIB. (Inhibition of CD40 mRNA Levels by Phosphorothioate Oligodeoxynucleotides) (human CD40 mRNA): 0.00%

Compound: 18705 (DNA dC*dT*dT*dC*dT*dG*dC*dC*dT*dG*dC*dA*dC*dC*dC*dC*dT*dG; antisense) [compound 18705]
- % INHIB. (Inhibition of CD40 mRNA Levels by Phosphorothioate Oligodeoxynucleotides) (human CD40 mRNA): 0.00%
